Source: patent US10010585B2, “Methods of treating vestibular schwannoma and reducing hearing or neurite loss caused by vestibular schwannoma” (Massachusetts Eye and Ear Infirmary, priority 2014, dated 2018)
Where “and” joins values, the source holds several entries; their conditions need not be identical. Equal values may be shown once.

Columns and labels:
primary VS cells [1] = assay: BrdU proliferation assay in primary VS cultures; assay type: cell-based, human; conditions: 48 hours
Method: Proliferation rate of 12 VS cultures was assessed and correlated with the tumor volume in the latest gadolinium enhanced T1-weighted MRI scan prior to surgical resection, and with tumor growth in vivo, measured as changes in the tumor's volume over time calculated from serial MRI scans. Tumor growth was standardized by dividing the growth rate by the initial tumor volume. Separate analyses were performed for solid tumors, which generally account for approximately 96% of VSs (Charabi et al., 1994), versus all studied tumors, which included 4 out of 13 total tumors with a visible cystic component, because cystic components could misrepresent true tumor volume (Charabi et al., 1994). To determine the level of cell proliferation in the cultures, Bromodeoxyuridine (BrdU) was added to the cells at a concentration of 10 μg/ml 20 hours before the cells were fixed. The cells were kept in the dark after the addition of BrdU Immunofluorescence protocol was followed as described under ‘Immunofluorescence,’ and cell and nuclear membranes were permeablized by incubation in 1% Triton-X for 10 minutes and by incubation in 2N Hydrochloric acid for 20 minutes, respectively, after fixation. Primary antibody against BrdU (AbD Serotec, NC, 1:200) and anti-rat IgG (Life Technologies, NY, 1:1000) were used. BrdU- and Hoechst-stained nuclei were counted in 3-5 fields and the ratio of BrdU positive to Hoechst positive nuclei was used to determine the proliferation rate in vitro. […]
(§1) Cultured human primary VS cells, primary SCs and HEI-193 cells were treated with NF-κB inhibitors BAY11-7082 (BAY11) or curcumin for 48 hours (Santa Cruz Biotechnology). BAY11 or curcumin, diluted in 100% DMSO, were mixed to the accurate concentrations in warmed media and applied to the cultures (with DMSO concentration in media being 1% maximum), alongside a no-treatment control receiving media alone with appropriate corresponding DMSO levels. Experiments were performed in media fortified with antibiotics and serum (same formulation as described in Example 1 for culturing cells).
(§2) After 48 hours of treatment, primary VS and Schwann cultures were fixed for BrdU staining, to visualize proliferation, or TUNEL staining, to visualize cell death. The same methodology as described in Example 1 was utilized. Cleaved caspase 3 staining, another apoptosis marker to reinforce findings using TUNEL, was conducted using an antibody against cleaved caspase 3 following the ‘immunofluorescence’ protocol outlined in Example 1.
(§3) The cultures were incubated with the drugs for 48 hours. To label proliferating cells, BrdU was added 20 hours before fixation. pH was measured in the media after drug addition to ensure no significant deviations.
(§4) After 48 hours of treatment with salicylates, primary VS and SC cultures were fixed for BrdU staining, to visualize proliferation, or TUNEL staining, to visualize cell death. The same methodology as described in Example 1 was utilized.
To understand cross-talk between HGF and VEGF-A pathway, cultured VS cells were incubated with Life Technologies silencer select siRNAs targeting VEGFA (s461) or MET (s8700). To understand whether HGF signaling contributed to VS proliferation, cultured VS cells were treated with MET inhibitor SU11274 (Sigma-Aldrich, MO, #S9820). Seventy-two hours after siRNA treatment or 12 hours after treatment with SU11274 (2 μM), cells were incubated with 10 μg/mL BrdU (Life Technologies, NY, # B23151) for 20 hours before fixation.

primary VS cells [2] = assay: TUNEL cell death assay in primary VS cultures; assay type: cell-based, human; conditions: 48 hours
Method: Rate of apoptosis in 6 VS cultures was assessed and correlated with tumor growth in vivo and tumor volume. […] Apoptosis was measured using terminal deoxynucleotidyl transferase dUTP nick end labeling (TUNEL, Roche Applied Sciences, NY) following manufacturer's instructions. Briefly, immunofluorescence protocol was followed as described under ‘Immunofluorescence,’ until fixations, then the cells were washed with PBS thrice and incubated in 1% Triton-X for 10 minutes on shaker. The cells were washed with PBS once and incubated in TUNEL mix for 1 hour at 37° C., then for 30 minutes at RT on shaker. The cells were then incubated in rhodamine phalloidin (Life Technologies, NY, 1:40) and Hoechst stain for 20 minutes, washed with PBS thrice and mounted onto slides for imaging. TUNEL and Hoechst stained nuclei were counted in >3 fields and the ratio of TUNEL positive to Hoechst positive nuclei was used to determine apoptosis rate in vitro. A positive control of 10 minutes-DNAse (Roche Applied Sciences, NY) treatment prior to TUNEL labeling was utilized.
For siRNA treatment, cultured primary VS cells or HEI-193 cells were placed in antibiotic and serum free media overnight. The next day, the cells were incubated with Life Technologies siRNAs targeting NF-κB genes RELA and NF-κB1, with control cells being treated with vehicle only (Lipofectamine RNAiMax), for 5 days. Some cultures were also incubated with a fluorescent random Oligo (Life Technologies) along with vehicle to assess transfection efficiency. siRNA experiments were performed in antibiotic and serum free media.
BAY11 or curcumin, diluted in 100% DMSO, were mixed to the accurate concentrations in warmed media and applied to the cultures (with DMSO concentration in media being 1% maximum), alongside a no-treatment control receiving media alone with appropriate corresponding DMSO levels.
After 48 hours of treatment, primary VS and Schwann cultures were fixed for BrdU staining, to visualize proliferation, or TUNEL staining, to visualize cell death.
After 48 hours of treatment with salicylates, primary VS and SC cultures were fixed for BrdU staining, to visualize proliferation, or TUNEL staining, to visualize cell death.

primary SCs = assay: BrdU proliferation assay in primary Schwann cell cultures; assay type: cell-based, human; conditions: 48 hours
Method: Proliferation rate of 12 VS cultures was assessed and correlated with the tumor volume in the latest gadolinium enhanced T1-weighted MRI scan prior to surgical resection, and with tumor growth in vivo, measured as changes in the tumor's volume over time calculated from serial MRI scans. Tumor growth was standardized by dividing the growth rate by the initial tumor volume. Separate analyses were performed for solid tumors, which generally account for approximately 96% of VSs (Charabi et al., 1994), versus all studied tumors, which included 4 out of 13 total tumors with a visible cystic component, because cystic components could misrepresent true tumor volume (Charabi et al., 1994). To determine the level of cell proliferation in the cultures, Bromodeoxyuridine (BrdU) was added to the cells at a concentration of 10 μg/ml 20 hours before the cells were fixed. The cells were kept in the dark after the addition of BrdU Immunofluorescence protocol was followed as described under ‘Immunofluorescence,’ and cell and nuclear membranes were permeablized by incubation in 1% Triton-X for 10 minutes and by incubation in 2N Hydrochloric acid for 20 minutes, respectively, after fixation. Primary antibody against BrdU (AbD Serotec, NC, 1:200) and anti-rat IgG (Life Technologies, NY, 1:1000) were used. BrdU- and Hoechst-stained nuclei were counted in 3-5 fields and the ratio of BrdU positive to Hoechst positive nuclei was used to determine the proliferation rate in vitro.
as §1, §2, §3, §4

COX-2 = conditions: 5 mM, 48 hours, VS culture media
Method: Prostaglandin (PTG) E2 was assayed in the media of VS cultures using the Prostaglandin E2 Parameter Assay Kit (R&D Systems, KGE004B). The media was collected after 48 hours of treatment from non-treated and treated cultured cells. Manufacturer's instructions were closely followed.
as §3

sporadic VS = conditions: retrospective study, serial MRI scans (Kandathil et al., 2014); cited from earlier work
[3] = test system: cochlear explant cultures (hair cells and neurites); assay: Murine cochlear explant culture, hair cell, neurite and fiber damage counts; assay type: cell-based, CBA/CaJ mice; conditions: for number of IHCs per 100 μm length / number of OHCs / number of neurites / severity of fiber disorganization / damage: recombinant human protein 5 μg/mL, 48 hours; for severity of fiber disorganization / damage: scale 0 to 2
Description: To develop an animal model to study hearing loss due to VS, cochlear explant cultures were established from postnatal CBA/CaJ mice aged P3-P5 (Jackson Laboratory, ME). Briefly, after decapitating the mouse, temporal bones were dissected from the skull in Hank's Balanced Salt Solution (Life Technologies, NY). The otic capsule encasing the cochlea was dissected out from each temporal bone. The otic capsule was carefully stripped away and the spiral ligament was peeled away from the entire cochlea, starting from the base. The basal turn of cochlea was then isolated using the dissecting knife (Fine Science Tools, CA), discarding the apical turn hook region. The tectorial membrane and the Reissner's membrane were removed, leaving the organ of Corti intact with the spiral ganglion neuron region. This explant was cultured onto a 10 mm glass coverslip coated with CellTak (BD Biosciences, CA, #354241) in a 35 mm culture dish with 4 wells. Cells were cultured in 98% DMEM, 1% ampicillin and 1% N2 supplement.
To assess FGF2's otoprotective effect, cochlear explant cultures were treated with recombinant human FGF2±gentamicin. After culturing the explants overnight, media fortified with FGF2 (100 ng/mL) was applied. Twenty-four hours later media fortified with gentamicin (1 mM) and FGF2 (100 ng/mL) was applied. […] Cochlear explants were fixed after an additional 24 hours of treatment, with total time being 48 hours.
After treatment, the explants were fixed and stained with antibodies against myosin 7A (Myo7A, Proteus Biosciences, CA) and β-tubulin (Tuj1, Covance, MA) to identify hair cells (HCs) and neurons, respectively. The same immunofluorescence protocol as described in Example 1 was used, with the exceptions of omission of […] HCl incubation, usage of 5% NHS with 1% Triton-X for blocking solution and 1% NHS with 0.4% Triton-X solution for primary antibody incubation at room temperature (RT). Secondary antibodies (Alexa Flour 555 anti-mouse and Alexa Four 488 anti-rabbit) were purchased from Life Technologies. Cochlear explants were imaged using a Leica TCS SP5 Confocal microscope. Zoomed-in pictures for the region of organ of Corti, including neurites, were merged in a z-stack to obtain a z-axis projection image in the Leica software. The number of hair cells (HCs) and neurites were manually counted per 100 μm length along the cochlea, with 1-2 samplings per specimen.
The same general methodology for murine cochlear explant cultures as described in Example 5 was utilized. Cochlear explant cultures were established from P2-P3 mice. Importantly, instead of only culturing the basal turn, the apical turn was also isolated, providing two pieces per cochlea with a greater frequency range. After approximately 12 hours, the cochlear explant cultures were treated for 48 hours with tumor secretions diluted to half their concentration. The formulation was 46.5% tumor-conditioned DMEM, 46.5% plain DMEM, 5% FBS, 1% ampicillin and 1% N2 supplement. Cochlear explants were treated with control media in parallel, being 46.5% DMEM incubated without tumor, 46.5% plain DMEM, 5% FBS, 1% ampicillin and 1% N2 supplement. All reagents were purchased from Life Technologies, NY. Osmolality in the solutions was measured in samples using a vapor-pressure osmometer (standardized with 290 mOsm/kg of 0.1567M sodium chloride solution) before applying them onto cochlear explants. Extra formulation for each VS secretion was made to be tested on Milliplex arrays and ELISA. Milliplex array, containing FGF2, VEGF-A and HGF beads (Millipore) and human TNFα ELISA (R&D Systems) were conducted as directed by the manufacturer on VS secretions prior to being applied onto the cochlear explant cultures.
Cochlear explants were fixed 48 hours after treatment and the same methodology for VS secretion application as described in Example 5 was utilized. […]

HGF = assay: Mouse HGF ELISA on cochlear explants; assay type: cell-based; conditions: recombinant human protein 5 μg/mL, 48 hours; control 48.1±17.0
Method: Recombinant human VEGF-A (R&D Systems), diluted in culture media to a 5 μg/mL concentration, was applied to cochlear explants for 48 hours. The explants were fixed and the same protocol as outlined previously was followed (Example 6). […] Plain media with neutralization VEGF-A antibody and VS secretions incubated with only goat IgGs (R&D Systems, MN) were prepared simultaneously as controls. Success of VEGF-A neutralization was confirmed using ELISA.
Human VEGF-A ELISA and mouse HGF ELISA kits were purchased from R&D systems and manufacturer's protocols were followed.

rat cochlear explants = conditions: 1 mM (Zheng and Gao, 1996); cited from earlier work

CC(=O)Oc1ccccc1C(=O)O [aspirin]
proliferation, of the NT cells (primary VS cells [1]; 1 mM): 129.6±26.2%
proliferation, of the NT cells (primary VS cells [1]; 5 mM): 19% and 19.3±5.5%
cell death rate (primary VS cells [2]; 1 mM): 0.6±0.3%
cell death rate (primary VS cells [2]; 5 mM): 2.8±2.2%
normalized proliferation rate, of the NT cells (primary SCs; 1 mM): 124.4±72.9%
proliferation, of the NT cells (primary SCs; 5 mM): 198.1±141.3%
secreted PTG levels, of NT cells (COX-2): 3.1%
probability of VS growth in comparison to VS patients not taking aspirin (sporadic VS): approximately half

TNFα
number of IHCs per 100 μm length ([3]; apical turn): 13.2±1.0 per 100 μm
number of OHCs ([3]; apical turn): 39.1±2.2 per 100 μm
number of neurites ([3]; apical turn): 14.3±2.9 per 100 μm
severity of fiber disorganization / damage ([3]; apical turn): 0.2±0.5
number of IHCs per 100 μm length ([3]; basal turn): 12.1±2.8 per 100 μm
number of OHCs ([3]; basal turn): 31.8±14.9 per 100 μm
number of neurites ([3]; basal turn): 11.3±2.4 per 100 μm
severity of fiber disorganization / damage ([3]; basal turn): 0.8±0.4
secreted HGF levels in cochlear explants (HGF): did not lead to changes

gentamicin
number of neurites per 100 μm ([3]; 1 mM gentamicin, basal turn, NT 13.1±1.7): 7.3±2.3 per 100 μm
total number of HCs per 100 μm length ([3]; 1 mM gentamicin, basal turn, NT 49.1±8.7): 10.4±7.0 per 100 μm
HC loss (rat cochlear explants): almost complete HC loss
neurites lost (rat cochlear explants): 25%
